Among the data in patent publication US10682323B2, “Therapeutic agent for glaucoma” (TOA EIYO LTD., priority 2016, dated 2020) are logD and EC50 values, retold here.

SMILES strings stand for the structures.

Data set [1] in a line: Determination of Log D value (flask shaking method). Type of data set: physicochemical. The note with it: pH 6.8; partition between n-octanol and second solution for the disintegration test (16th revised Japanese Pharmacopoeia), room temperature. The procedure: More specifically, the Log D is more preferably 1.6 or more and 2.3 or less, still more preferably 1.8 or more and 2.2 or less, and particularly preferably 1.8 or more and 2.1 or less. Here, the Log D value in the present invention is a compound partition coefficient between n-octanol and a second solution of a disintegration test of the 16th revised Japanese Pharmacopoeia.
The Log D value was determined using a flask shaking method, where a test compound partition coefficient between n-octanol and the second solution for the disintegration test defined in the 16th revised Japanese Pharmacopoeia was calculated. Specifically, in a microtube containing 2 mg of the test compound, n-octanol (0.25 mL) and the second solution for the disintegration test (0.25 mL) were mixed. The tube was shaken in a multi shaker at room temperature for 60 minutes, and allowed to stand until the two phases were completely separated. In the microtube, 10 μL of an n-octanol phase was diluted with 190 μL of 85% methanol and mixed, thereby obtaining an organic phase test solution. 100 μL of the second solution phase for the disintegration test was diluted with 100 μL of 50% methanol, and mixed, thereby obtaining an aqueous phase test solution. The organic phase test solution and the aqueous phase test solution were filtered, respectively, and the concentration of the test compound in these test solutions were measured, using high performance liquid chromatography. Then, from the measured concentration and dilution rate, the Log D was calculated.
That is, the Log D of the present specification is represented by the following equation: Log D=Log10([concentration of test compound in organic phase test solution]/[concentration of test compound in aqueous phase test solution])+1 [Equation 1]
The second solution for the disintegration test herein refers to, as defined in the 16th revised Japanese Pharmacopoeia, a liquid obtained by adding to 250 mL of a 0.2 mol/L potassium dihydrogenphosphate reagent, 118 mL of a 0.2 mol/L sodium hydroxide reagent, and water for adjusting to 1000 mL volume.

For data set [2], the target named is T1, human sGC (Homo sapiens, UniProt Q02153).
T1 construct: expressed in transfected cells; host or cells: CHO-K1 cells (Chinese hamster ovary), stably co-expressing mouse CNGA2 as the calcium read-out channel
T1 sequence (Q02153 1-619): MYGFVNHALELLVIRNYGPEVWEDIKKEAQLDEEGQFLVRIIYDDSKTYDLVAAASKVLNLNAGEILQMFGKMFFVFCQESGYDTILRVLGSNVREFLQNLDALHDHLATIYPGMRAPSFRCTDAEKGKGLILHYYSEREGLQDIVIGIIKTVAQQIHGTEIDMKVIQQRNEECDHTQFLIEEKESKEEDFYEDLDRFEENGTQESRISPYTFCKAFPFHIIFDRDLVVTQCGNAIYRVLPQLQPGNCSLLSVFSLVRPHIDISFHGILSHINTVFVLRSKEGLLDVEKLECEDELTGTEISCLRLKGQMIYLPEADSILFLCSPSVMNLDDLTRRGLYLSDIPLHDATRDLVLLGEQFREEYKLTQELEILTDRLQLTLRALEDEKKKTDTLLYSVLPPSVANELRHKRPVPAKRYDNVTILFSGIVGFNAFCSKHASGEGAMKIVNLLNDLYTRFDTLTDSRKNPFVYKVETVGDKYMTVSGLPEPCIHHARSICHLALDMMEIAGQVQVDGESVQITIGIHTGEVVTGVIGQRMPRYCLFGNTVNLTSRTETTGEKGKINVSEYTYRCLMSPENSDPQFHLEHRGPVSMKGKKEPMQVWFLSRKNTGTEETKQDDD
T1 sequence (Q02108 1-690 partner): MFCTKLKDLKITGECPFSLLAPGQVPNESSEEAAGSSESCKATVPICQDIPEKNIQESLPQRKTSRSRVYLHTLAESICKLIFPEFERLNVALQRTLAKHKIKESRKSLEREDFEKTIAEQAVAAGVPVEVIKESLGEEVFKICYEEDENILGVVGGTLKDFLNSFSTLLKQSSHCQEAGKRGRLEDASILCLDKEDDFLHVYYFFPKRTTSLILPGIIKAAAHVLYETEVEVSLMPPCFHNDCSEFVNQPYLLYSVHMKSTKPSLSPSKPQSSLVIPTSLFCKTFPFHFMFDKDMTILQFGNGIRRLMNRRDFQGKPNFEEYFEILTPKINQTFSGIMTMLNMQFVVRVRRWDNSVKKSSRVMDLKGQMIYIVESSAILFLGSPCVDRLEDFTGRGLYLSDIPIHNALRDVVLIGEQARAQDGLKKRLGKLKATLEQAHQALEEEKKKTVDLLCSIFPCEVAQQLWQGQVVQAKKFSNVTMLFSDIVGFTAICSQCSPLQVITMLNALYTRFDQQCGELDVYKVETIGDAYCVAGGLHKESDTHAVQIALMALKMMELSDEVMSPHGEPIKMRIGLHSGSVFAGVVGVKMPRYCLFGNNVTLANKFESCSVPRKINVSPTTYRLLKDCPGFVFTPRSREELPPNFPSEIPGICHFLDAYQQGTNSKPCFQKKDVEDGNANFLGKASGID
As to the kind of experiment: Measurement of sGC activating effect in CHO-K1 cells stably expressing human sGC and mouse CNGA2. Type of data set: cell-based. The note with it: CHO-K1 cells expressing human sGC and mouse CNGA2, Fura2 calcium readout, 10 μmol/L ODQ in assay buffer. As to the method: Chinese Hamster ovary cells (CHO-K1 cells) modified for stably expressing human sGC α subunit and β subunit, and a mouse cyclic nucleotide gated channel (CNGA2) were used in the test.
The CHO-K1 cells stably expressing human sGC and mouse CNGA2 were cultured at 37° C. in a F-12 medium supplemented with 10% (v/v) fetal bovine serum (FBS), penicillin (100 U/mL), streptomycin (100 μg/mL), G418 (250 μg/mL), and Zeocin (250 μg/mL). The cells were suspended in a culture medium, seeded in a 96 well plate, and cultured at 37° C. for 24 hours. The cells were washed with an assay buffer 1 (140 mmol/L of sodium chloride, 5 mmol/L of potassium chloride, 0.5 mmol/L of magnesium chloride, 0.01 mmol/L of calcium chloride, 10 mmol/L of glucose, 0.4 mmol/L of magnesium sulfate, 10 mmol/L of 4-(2-hydroxyethyl)piperazine-1-yl ethanesulfonic acid, 125 μmol/L of sulfinpyrazone, pH 7.4), and then an indicator solution in which Fura2-AM as a fluorescent Ca2+ indicator is dissolved in assay buffer 1 at a concentration of 5 μmol/L was added thereto, and cultured at 37° C. for 60 minutes. The culture medium was removed, the cells were washed with assay buffer 1, the test compound solution was added thereto, and cultured at room temperature for 10 minutes. The plate was mounted on a fluorescence microplate reader (FlexStation II, available from Molecular Devices) with setting of excitation wavelengths of 340 and 380 nm and a detection wavelength of 510 nm, an intracellular calcium concentration was measured as a fluorescent intensity ratio obtained from each excitation wavelength.
In this test, the solution of the test compound was prepared by dissolving each test compound in DMSO at a concentration of 10 mmol/L, and then diluting the solution with assay buffer 2 (140 mmol/L of sodium chloride, 5 mmol/L of potassium chloride, 0.5 mmol/L of magnesium chloride, 1 mmol/L of calcium chloride, 10 mmol/L of glucose, 0.4 mmol/L of magnesium sulfate, 10 mmol/L of 4-(2-hydroxyethyl)piperazine-1-yl ethanesulfonic acid, 125 μmol/L of sulfinpyrazone, 100 μmol/L of isobutylmethylxanthine, 10 μmol/L of 1H-[1,2,4]-oxadiazole [4,3-a]quinoxaline-1-on (hereinafter, referred to as ODQ), pH 7.4), in order to adjust the concentration of 10 μmol/L for testing. As a control solution, a DMSO diluted solution was used, instead of the test compound solution.
The activity of the test compound was calculated as an increase rate (%) of the sGC activity in the test compound solution relative to the sGC activity in the control solution, by dividing a fluorescent intensity ratio in adding the test compound by a fluorescent intensity ratio of the control solution, and subtracting the sGC activity in the control solution (100%) therefrom. An EC50 value was calculated from the activity of the test compound at concentrations of 0.0001, 0.001, 0.003, 0.01, 0.03, 0.1, 1, and 10 μmol/L, using a 4 parameter losgistic model from Assay Explorer (available from Dssault Systèmes BIOVIA).

Consider `N#Cc1cccc([C@H](CN(CCCCC(=O)O)Cc2ccc(C(=O)O)cc2)OCc2ccc(CCc3ccccc3)cc2)c1` [Compound No. 1, (−)-4-([N-(4-carboxybutyl)-N-[(2R)-2-(3-cyanophenyl)-2-[4-(2-phenylethyl)benzyloxy]ethyl]amino]methyl)benzoic acid], for which the log distribution coefficient (logD) in data set [1] was determined as 2.03. Besides, in data set [2], the EC50 was 8.8 nM.
Taken in the same sequence, the figures for `O=C(O)CCCCN(CCc1ccccc1OC[C@H]1CCc2ccccc2C1)C1CCCc2cc(C(=O)O)ccc21` (stereo partly drawn) [Compound No. 17, 5-[N-(4-carboxybutyl)-N-[2-[2-((2S)-1,2,3,4-tetrahydronaphthalene-2-ylmethoxy)phenyl]ethyl]amino]-5,6,7,8-tetrahydronaphthalene-2-carboxylic acid] were 2 and 11 nM.
In the case of `O=C(O)CCCCN(Cc1ccc(C(=O)O)cc1)C[C@H](OCc1cccc(CCc2ccccc2)c1)c1ccccc1` [Compound No. 11, (−)-4-([N-(4-carboxybutyl)-N-[(2R)-2-[3-(2-phenylethyl)benzyloxy]-2-phenylethyl]amino]methyl)benzoic acid], the logD in data set [1] worked out at 1.94. For the same compound, in data set [2], the EC50 worked out at 1.99 nM.
In data set [1], `O=C(O)CCCCN(CCc1ccccc1OCc1ccc(C#CC2CC2)cc1)C1CCCc2cc(C(=O)O)ccc21` (stereo not drawn) [Compound No. 21, 5-[N-(4-carboxybutyl)-N-[2-[2-[4-(2-cyclopropylethynyl)benzyloxy]phenyl]ethyl]amino]-5,6,7,8-tetrahydronaphthalene-2-carboxylic acid] came in with a logD of 2.06. The EC50 in data set [2] amounted to 15.9 nM.
Taken in the same sequence, the figures for `O=C(O)CCCCN(CCc1ccccc1OCc1ccc(COc2ccccc2)cc1)C1CCCc2cc(C(=O)O)ccc21` (stereo not drawn) [Compound No. 22, 5-[N-(4-carboxybutyl)-N-[2-[2-(4-phenoxymethylbenzyloxy)phenyl]ethyl]amino]-5,6,7,8-tetrahydronaphthalene-2-carboxylic acid] were 2.18 and 8.86 nM.
In the case of `O=C(O)CCCCN(Cc1ccc(C(=O)O)cc1)C[C@H](OCc1ccc(CCc2ccccc2)s1)c1ccccc1` [Compound No. 4, (−)-4-[(N-(4-carboxybutyl)-N-[(2R)-2-[5-(2-phenylethyl)thiophene-2-ylmethoxy]-2-phenylethyl]amino)methyl]benzoic acid], the logD in data set [1] was found to be 1.8. The EC50 in data set [2] was 1.61 nM.
Regarding `CC(C)(C)c1ccccc1COc1ccccc1CCN(CCCCC(=O)O)C1CCCc2cc(C(=O)O)ccc21` (stereo not drawn) [Compound No. 15, 5-[N-[2-[2-(2-tert-butylbenzyloxy)phenyl]ethyl]-N-(4-carboxybutyl)amino]-5,6,7,8-tetrahydronaphthalene-2-carboxylic acid], the logD in data set [1] was 1.95. Besides, the EC50 in data set [2] was determined as 13.4 nM.
In data set [1], `CC(C)(C)c1cccc(COc2ccccc2CCN(CCCCC(=O)O)[C@H]2CCCc3cc(C(=O)O)ccc32)c1` [Compound No. 9, (+)-(5S)-5-[N-[2-[2-(3-tert-butylbenzyloxy)phenyl]ethyl]-N-(4-carboxybutyl)amino]-5,6,7,8-tetrahydronaphthalene-2-carboxylic acid] had a logD of 2.09. The EC50 in data set [2] came to 7.09 nM.
`CC(C)(C)c1cccc(CO[C@@H](CN(CCCCC(=O)O)Cc2ccc(C(=O)O)cc2)c2cccc(Cl)c2)c1` [Compound No. 2, (−)-4-([N-[2-(3-tert-butylbenzyloxy)-(2R)-2-(3-chlorophenyl)ethyl]-N-(4-carboxybutyl)amino]methyl)benzoic acid] registered a logD in data set [1] of 2.14. Moreover, the concentration for a half-maximal effect (EC50) in data set [2] came to 1.54 nM.
In data set [1], `O=C(O)CCCCN(CCc1ccccc1OCc1ccc(OCc2ccccc2)cc1)C1CCOc2cc(C(=O)O)ccc21` (stereo not drawn) [Compound No. 24, 4-[N-[2-[2-(4-benzyloxybenzyloxy)phenyl]ethyl]-N-(4-carboxybutyl)amino]-chromane-7-carboxylic acid] gave a logD of 2.4. In addition, in data set [2], the concentration giving a half-maximal response (EC50) came out at 8.73 nM.
The compound `CC(C)c1ccc(COc2ccccc2CCN(CCCCC(=O)O)[C@H]2CCCc3cc(C(=O)O)ccc32)cc1` [Compound No. 10, (+)-(5S)—[N-(4-carboxybutyl)-N-[2-[2-(4-isopropylbenzyloxy)phenyl]ethyl]amino]-5,6,7,8-tetrahydronaphthalene-2-carboxylic acid] came in with a logD in data set [1] of 1.88. For the same compound, the EC50 in data set [2] amounted to 9.63 nM.
Taken in the same sequence, the figures for `O=C(O)CCCCN(CCc1ccccc1OCc1cc2c(s1)CCCC2)C1CCCc2cc(C(=O)O)ccc21` (stereo not drawn) [Compound No. 19, 5-[N-(4-carboxybutyl)-N-[2-[2-(4,5,6,7-tetrahydrobenzo[b]thiophene-2-ylmethoxy)phenyl]ethyl]amino]-5,6,7,8-tetrahydronaphthalene-2-carboxylic acid] were 1.74 and 33.5 nM.

A word on the logD: it is the decadic logarithm of the distribution of all forms, ionised or not, between an organic phase and buffer at a given pH. For orientation: EC50 means the concentration at which the effect is half-maximal.
